We go through one compound from patent publication US5670506A, “Halogen, isothiocyanate or azide substituted xanthines” (Cell Therapeutics, Inc., priority 1993, dated 1997).

What all share (format): cell-based
One test concerns human lymphocytes. Description: inhibition of blast formation from human lymphocytes stimulated by anti-CD3 antibody. To be noted: Lymphocyte, FIG. 10, read-out: IC50, blastogenesis stimulated by anti-CD3. The procedure: This is a human in vitro assay for immunosuppressive activity of the inventive compounds.
A third assay measures an ability of an inventive compound to inhibit IL-2-induced proliferation of murine thymocytes. Thymus glands are obtained from 4-6 week old mice and plated as a single cell suspension into flat bottomed wells in RPMI 1640 medium supplemented with 10% fetal calf serum. The inventive compounds are added to appropriate wells and the cells are incubated for 1-2 hrs. Concanavilin A (ConA, 0.25 μg/ml) and IL-1 (20 ng/ml) are added and the plates are incubated for 4 days. Cell proliferation is determined as above. There are also variations for this assay that follow the same basic stimulation and measure inhibition of proliferation format. For example, splenocytes can be used instead of thymocytes to measure more of a B cell response than a T cell response (e.g., thymocytes) and stimulated by an anti-mu antibody (40 μg/ml), IL-4 or PMA (2.5 nM). Similarly, human lymphocytes can be used from normal human volunteers and stimulated with human IL-2 (100 U/ml, Genzyme) and/or anti-CD3 antibody (2.5 μg/ml, Boehinger Mannheim).
This example illustrates an experiment showing the effects of CT1525, CT1529 and CT1595 (see Table 1 above for chemical names) on inhibition of blast formation from human lymphocytes stimulated by IL-2 or an anti-CD3 antibody (FIG. 10). […]

For a further test, the system named is human stromal cells. Kind of test: inhibition of proliferation of human stromal cells stimulated with PDGF. The procedure: This assay is a model for restenosis and treatment of atherosclerosis and coronary artery disease. Stromal cells were starved in serum-free media for one day and then stimulated with 50 ng/ml PDGF-BB. The drags were added at the indicated concentrations one hour prior to PDGF stimulation. Tritiated thymidine was added for one day at the time of PDGF stimulation and the cells were harvested and counted by liquid scintillation counting 24 hrs later. Background counts (i.e., starved cells) were approximately 1% of control levels.
Another assay for measuring activity of the inventive compounds involves determining PDGF (platelet derived growth factor) proliferative response using human-derived stromal cells. Human stromal cells are plated (e.g., about 2000 cells per well) in defined media (e.g., 69% McCoy's, 12.5% fetal calf serum, 12.5% horse serum, 1% antibiotics, 1% glutamine, 1% vitamin supplement, 0.8% essential amino acids, 1% sodium pyruvate, 1% sodium bicarbonate, 0.4% non-essential amino acids and 0.36% hydrocortisone). Two to three days later, the stromal cells are starved in serum-free media. Twenty four hours later, the cells are treated with a stimulating agent, such as PDGF-AA, PDGF-BB or basic FGF (fibroblast growth factor) with or without IL-1α or TNF, and tritiated thymidine. Cell proliferation is determined by liquid scintillation counting.
This assay is a model for restenosis and treatment of atherosclerosis and coronary artery disease. Stromal cells were starved in serum-free media for one day and then stimulated with 50 ng/ml PDGF-BB. The drugs were added at the indicated concentrations one hour prior to PDGF stimulation. Tritiated thymidine was added for one day at the time of PDGF stimulation and the cells were harvested and counted by liquid scintillation counting 24 hrs later. Background counts (i.e., starved cells) were approximately 1% of control levels.

The test system of another test is mast cell line (PT-18). Description: total PA mass in mast cell line stimulated by IgE and DNP. To be noted: FIG. 13; IgE and DNP stimulation, in words.
A further test deals with mast cells. Description: mast cell degranulation, serotonin release assay. The source says:
A serotonin release assay is utilized to study the utility of the inventive compounds for treatment of asthma and allergy. This assay measures mast cell degranulation, which is an early phase reaction to allergen challenge. Mast cells grown in tissue culture are first loaded with ^3 H serotonin, which is incorporated into the granules in the cells. The mast cells are sensitized with antigen specific monoclonal IgE, and then triggered to degranulate with the specific antigen (dinitrophenol bound to BSA (DNP)). When the cells degranulate, ^3 H Serotonin is released into the medium, and can be measured directly. The ability of the inventive compounds to inhibit the degranulation response is determined by the decrease in ^3 H Serotonin released in the presence of drug and is represented as % INHIBITION. The IC50 of any given compound is determined by the ability of that compound to inhibit degranulation by 50%.
Specifically, the serotonin release assay seeds 2×10^5 cells in 0.5 ml medium in duplicate for spontaneous release, IgE+DNP, IgE+DNP+EtOH (vehicle control), and inventive compounds. One μCi [^3H ]-Serotonin/ml (i.e., 0.5 μCi/well) (NEN Research Products, cat. #NET-398 Hydroxytryptamine Binoxalate, 5-[1,2-^3 H(N)]-(Serotonin Binoxalate, [1,2-^3 H(N)]-)) and 1 μl/ml IgE is added. The cells are incubated for 18 hours at 37° C. in 5% CO2, washed twice with 0.5 ml Isotonic Buffer (25 mM disodium PIPES pH 7.1,100 mM NaCl, 5 mM KCl, 5 mM glucose, 0.4 mM MgCl2, 1 mM CaCl2, 0.1% BSA), and sterile filtered. 250 μl Isotonic Buffer is added per well and the plates are equilibrated in an incubator for about 10 min. Drug is added and cells are activated with 40 ng/ml DNP-BSA (1 mg/ml Diluted 1:200 in Isotonic Buffer) for 45 minutes using 2 μl/250 μl. Spontaneous release is determined in incubated cells with 250 μl Isotonic Buffer for 45 minutes and the reaction is stopped by removing supernatant and centrifuging at ~4000 rpm in microfuge for 15 seconds to remove any detached cells. Released radiolableled serotonin is counted. To determine amount of ^3 H-serotonin incorporated into the cells, (a) remove Isotonic Buffer and lyse cells by adding 250 μl 1% Triton-X100 in PBS, (b) add to 5 ml scintillation fluid, (c) wash 2× with Triton/PBS, and (d) add washes to scintillation tube. Percent serotonin release is calculated by dividing the amount of released serotonin by the sum of incorporated plus released serotonin and correcting for spontaneous released serotonin. Compound inhibition is calculated by dividing the percent serotonin release in the presence of a compound by the percent serotonin release in the absence of the compound.
This assay is described above and provides an in vitro model for an allergy and asthma therapeutic compound.

Some results are limits rather than exact numbers.

In general, inhibition refers to how much of the control response was suppressed. Read a low inhibition as a response near the control. Regarding `Cn1cnc2c1c(=O)n(CCCCC(=O)CCl)c(=O)n2C` [CT1595, 1-(6-chloro-5-oxohexyl)-3,7-dimethylxanthine], the IC50 with human lymphocytes was under 5 µM; in the test with human stromal cells (Homo sapiens, read-out: IC50, inhibition of human stromal cell proliferation) it was under 10 µM. In the test on human stromal cells (FIG. 7, 50 ng/ml PDGF-BB, in words), the “inhibition of human stromal cell proliferation” value is reported as “strongly inhibit proliferation”. Also, the “IC50 for accumulation of PA” value with mast cell line (PT-18) was “low nanomolar range”. The same compound came in with an inhibition at 50 µM in the test on mast cells (50 μM) of 44%. Besides, 100 µM produced 88% inhibition with mast cells (100 μM).
